Test results from PubChem BioAssay AID248 (DTP/NCI, 2004).
“And” between values parts separate entries of the source, which are not always exact repeats. Equal entries are not always repeated. Inconclusive results and toxic doses are left out. Cut-off read from the data, not from the text of the source: active = T/C of 150% or more; inactive = T/C below 125%.

System: L1210 leukemia ip in BDF1 mice, survival T/C
Experiment: NCI In Vivo Anticancer Drug Screen. Data for tumor model L1210 Leukemia (intraperitoneal) in B6D2F1 (BDF1) mice
Details: endpoint: mean survival time, higher = longer survival
In short: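 Ratio derived from survival: compound-dosed mice over vehicle-dosed mice, all bearing a transplantable tumor.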

[1] = dose: 50.0 mg/kg/injection, schedule: Q01DX009 (ip), vehicle: Klucel (hydroxypropylcellulose) (HPC)
[2] = dose: 100.0 mg/kg/injection, schedule: Q01DX009 (ip), vehicle: Klucel (hydroxypropylcellulose) (HPC)
[3] = dose: 100.0 mg/kg/injection, schedule: Q01DX009 (ip), vehicle: saline with Tween-80
[4] = dose: 200.0 mg/kg/injection, schedule: Q01DX009 (ip), vehicle: saline with Tween-80
[5] = dose: 400.0 mg/kg/injection, schedule: Q01DX009 (ip), vehicle: saline with Tween-80
[6] = dose: 100.0 mg/kg/injection, schedule: Q01DX001 (ip), vehicle: saline
[7] = dose: 100.0 mg/kg/injection, schedule: Q01DX001 (ip), vehicle: carboxymethylcellulose (CMC)
[8] = dose: 200.0 mg/kg/injection, schedule: Q01DX001 (ip), vehicle: carboxymethylcellulose (CMC)
[9] = dose: 400.0 mg/kg/injection, schedule: Q01DX001 (ip), vehicle: carboxymethylcellulose (CMC)
[10] = dose: 100.0 mg/kg/injection, schedule: Q04DX003 (ip), vehicle: saline with Tween-80
[11] = dose: 200.0 mg/kg/injection, schedule: Q04DX003 (ip), vehicle: saline with Tween-80
[12] = dose: 400.0 mg/kg/injection, schedule: Q04DX003 (ip), vehicle: saline with Tween-80
[13] = dose: 200.0 mg/kg/injection, schedule: Q01DX001 (ip), vehicle: saline
[14] = dose: 100.0 mg/kg/injection, schedule: Q04DX002 (ip), vehicle: Klucel (hydroxypropylcellulose) (HPC)
[15] = dose: 100.0 mg/kg/injection, schedule: Q04DX003 (ip), vehicle: Klucel (hydroxypropylcellulose) (HPC)
[16] = dose: 200.0 mg/kg/injection, schedule: Q01DX009 (ip), vehicle: Klucel (hydroxypropylcellulose) (HPC)
[17] = dose: 200.0 mg/kg/injection, schedule: Q04DX003 (ip), vehicle: Klucel (hydroxypropylcellulose) (HPC)
[18] = dose: 400.0 mg/kg/injection, schedule: Q04DX003 (ip), vehicle: Klucel (hydroxypropylcellulose) (HPC)

Measured: T/C

O=C(O)/C=C/c1nc2ccccc2c(=O)[nH]1
inactive: [1] 114 % of control | [2] 100 % of control

O=c1[nH]cccc1[N+](=O)[O-]
inactive: [3] 95 % of control | [4] 90 % of control | [5] 95 % of control

C/C(=N/NC(N)=S)c1c(C)[nH]c2ccccc12
inactive: dose: 10.0 mg/kg/injection, schedule: Q01DX001 (ip), vehicle: acetone 96 % of control | dose: 20.0 mg/kg/injection, schedule: Q01DX001 (ip), vehicle: acetone 96 % of control | dose: 40.0 mg/kg/injection, schedule: Q01DX001 (ip), vehicle: acetone 95 % of control

CCC[CH2][Sn]1([CH2]CCC)[O]CC[S]1
inactive: dose: 5.0 mg/kg/injection, schedule: Q01DX001 (ip), vehicle: saline 111 % of control

CC(C1=C(CCN(C)C)Cc2ccccc21)c1ccccn1 (stereo unspecified)
inactive: [6] 107 % of control

Cc1ccc(S(=O)(=O)N(CCC(=O)O)Cc2ccccc2)cc1
inactive: [7] 121 % of control | [8] 103 % of control | [9] 108 % of control

CC(=O)OCC(CCn1ccc(=O)[nH]c1=O)COC(C)=O
inactive: [3] 93 % of control | [10] 100 % of control | [4] 95 % of control | [11] 105 % of control | [5] 100 % of control | [12] 106 % of control

Cc1cc(Cl)cc(CN(C)C)c1O.[Cu+2]
inactive: dose: 50.0 mg/kg/injection, schedule: Q01DX001 (ip), vehicle: saline 97 % of control | [6] 97 % of control | [13] 113 % of control

O=C(Nc1cccc([N+](=O)[O-])c1)Nc1cccc(C(F)(F)F)c1
inactive: [14] 101 % of control | dose: 200.0 mg/kg/injection, schedule: Q04DX002 (ip), vehicle: Klucel (hydroxypropylcellulose) (HPC) 99 % of control | dose: 400.0 mg/kg/injection, schedule: Q04DX002 (ip), vehicle: Klucel (hydroxypropylcellulose) (HPC) 96 % of control

O=C(O)c1ccccc1-c1ccccc1C(=O)O
inactive: [10] 111 % of control | [11] 97 % of control | [12] 94 % of control

NC(=O)N/N=C(\CCl)c1ccccc1
inactive: dose: 12.0 mg/kg/injection, schedule: Q04DX003 (ip), vehicle: saline 93 % of control

CCOC(C)(C)C
inactive: [6] 97 % of control | [13] 103 % of control | dose: 400.0 mg/kg/injection, schedule: Q01DX001 (ip), vehicle: saline 106 % of control

Cc1cc(C)c(NC(=S)NC(=O)c2cccc3ccccc23)c(C)c1
inactive: [2] 98 % of control | [15] 103 % of control | [16] 106 % of control | [17] 97 % of control | dose: 400.0 mg/kg/injection, schedule: Q01DX009 (ip), vehicle: Klucel (hydroxypropylcellulose) (HPC) 95 % of control | [18] 103 % of control

Cc1ccc(NN=Nc2ccccc2C#N)cc1
inactive: dose: 50.0 mg/kg/injection, schedule: Q01DX009 (ip), vehicle: saline 92 % of control | dose: 100.0 mg/kg/injection, schedule: Q01DX009 (ip), vehicle: saline 92 % of control | dose: 100.0 mg/kg/injection, schedule: Q04DX003 (ip), vehicle: acetone 110 % of control | dose: 200.0 mg/kg/injection, schedule: Q01DX009 (ip), vehicle: saline 88 % of control | dose: 200.0 mg/kg/injection, schedule: Q04DX003 (ip), vehicle: acetone 100 % of control | dose: 400.0 mg/kg/injection, schedule: Q04DX003 (ip), vehicle: acetone 103 % of control

CCCCCCCCCCCCCCCC(=O)Nc1cccc2cnccc12
inactive: [15] 100 % of control | [17] 97 % of control | [18] 105 % of control

CCCN(CCC)CCNCC(Cc1ccccc1)c1ccccc1 (stereo unspecified)
inactive: dose: 50.0 mg/kg/injection, schedule: Q04DX002 (ip), vehicle: Klucel (hydroxypropylcellulose) (HPC) 99 % of control | [14] 99 % of control

COc1ccc(NC(=O)CSc2cc(Cl)ccc2Cl)cc1
inactive: [7] 102 % of control | [8] 96 % of control | [9] 90 % of control

COC1/C=C/OC2(C)Oc3c(C)c(O)c4c(O)c(c(C=NOC(c5ccccc5)c5ccccc5)c(O)c4c3C2=O)NC(=O)/C(C)=C/C=C/C(C)C(O)C(C)C(O)C(C)C(OC(C)=O)C1C (stereo unspecified)
inactive: dose: 25.0 mg/kg/injection, schedule: Q04DX003 (ip), vehicle: water 102 % of control | dose: 50.0 mg/kg/injection, schedule: Q04DX003 (ip), vehicle: water 102 % of control | dose: 100.0 mg/kg/injection, schedule: Q04DX003 (ip), vehicle: water 96 % of control | dose: 200.0 mg/kg/injection, schedule: Q04DX003 (ip), vehicle: water 98 % of control

CCCCCCCCCCCCCCCC[n+]1cccc(C(=O)NCO)c1
inactive: [7] 93 % of control | [8] 102 % of control

Cc1cc(=O)oc2c(OS(C)(=O)=O)c(OS(C)(=O)=O)ccc12
inactive: dose: 6.25 mg/kg/injection, schedule: Q01DX009 (ip), vehicle: Klucel (hydroxypropylcellulose) (HPC) 100 % of control | dose: 12.5 mg/kg/injection, schedule: Q01DX009 (ip), vehicle: Klucel (hydroxypropylcellulose) (HPC) 100 % of control | dose: 25.0 mg/kg/injection, schedule: Q01DX009 (ip), vehicle: Klucel (hydroxypropylcellulose) (HPC) 96 % of control and 100 % of control | [1] 94 % of control and 88 % of control | [2] 97 % of control | [16] 105 % of control

Clc1nc(Cl)nc(Cl)n1
inactive: dose: 100.0 mg/kg/injection, schedule: Q04DX002 (ip), vehicle: other 98 % of control | dose: 200.0 mg/kg/injection, schedule: Q04DX002 (ip), vehicle: other 95 % of control
